According to US4401430A, “Method of and apparatus for detoxifying mammalian hosts” (priority 1981, dated 1983):
Where a name gives a salt, the structure may show the parent alone. Read-outs that look alike come from different tables or passages of the source.

What was measured:
[1] = tested on: human albumin; assay: Free chlorpromazine in human albumin solution with ethanol (differential solution pH change); format: in vitro ADME; conditions: ethanol 0 to 1.0% v/v; room temperature
Method: Chlorpromazine HCl, a tranquilizer, was added to a human albumin solution at room temperature and allowed to equilibrate. Differential solution pH changes, related to free drug concentration, were measured.

[2] = tested on: human albumin
Method: Imipramine HCl, an antidepressant, was added to a human albumin solution at room temperature and allowed to equilibrate. Differential solution pH changes, related to free drug concentration, were measured. Ethanol concentrations of 0, 0.2, 0.4, 0.6, 0.8 and 1.0% v/v were tested.

[3] = tested on: human albumin; assay: Free thiopental in human albumin solution with sodium lauryl sulfate (differential solution pH change); format: in vitro ADME; conditions: sodium lauryl sulfate 0, 2, 4, 6, 8, and 10 mg/ml; room temperature
Method: Thiopental was added to a human albumin solution at room temperature and allowed to equilibrate. Differential solution pH changes, related to free drug concentration, were measured.

[4] = Free drug concentration of thiopental in fresh human plasma with ethanol (thin layer chromatography); format: in vitro ADME; conditions: ethanol 0 to 1.0% v/v, room temperature
Method: Thiopental was added to fresh human plasma at room temperature and allowed to equilibrate. Thin layer chromatography, used as an indicator of free drug concentration, was compared to thiopental calibrated plates. Ethanol concentrations of 0, 0.1, 0.2, 0.3, 0.4, 0.5, 0.6, 0.7, 0.8 and 1.0% v/v were tested. A maximum free drug concentration occurred at and above 0.6% v/v.

[5] = Thiopental in fresh human plasma with ethanol, equilibrated with coated activated charcoal (uv relative absorbance); format: in vitro ADME
Method: Thiopental was added to fresh human plasma at room temperature and allowed to equilibrate. Relative absorbances, proportional to free drug concentration, were measured spectrophotometrically (uv). Ethanol concentrations of 0, 0.4, 0.7, 1.0, and 1.4% v/v were tested. Drug/plasma and drug/plasma/ethanol solutions were equilibrated with coated activated charcoal.

[6] = Effectiveness as liberating agent for bilirubin (general statement); format: in vitro ADME
Excerpt: (§1) The term "liberating agent" as used herein defines a reagent which when added to a body fluid, increases the ratio of a free soluble chemical to the total content of that chemical in the body fluid. The total content is the aggregate of both the free soluble and bound states of the chemical. More than one physical mechanism can be encountered with the same resultant advantageous partitioning of the target chemical from the bound to the free soluble phase. […] In general, liberating agents as herein defined are useful in body fluids and in vivo.

[7] = less than two percent by volume (% v/v); barbiturates (thiopental, secobarbital, pentobarbital), tricyclics (imipramine, chlorpromazine)
Excerpt: as §1

[8] = Effectiveness as liberating agent for thiopental (general statement); format: in vitro ADME; conditions: specific drugs such as thiopental
Excerpt: as §1

## CN(C)CCCN1c2ccccc2Sc2ccc(Cl)cc21 [Chlorpromazine HCl]
[1]
  free soluble concentration of the drug: increases in free soluble concentration

## CN(C)CCCN1c2ccccc2CCc2ccccc21 [Imipramine HCl]
[2]
  free soluble drug concentration (differential pH responses): significant increases in the free soluble drug concentration

## CCCC(C)C1(CC)C(=O)NC(=S)NC1=O (centres unmarked) [Thiopental]
[3]
  differential solution pH change: continuous pH change
  free soluble drug concentration: increasing free soluble drug concentrations
[4]
  ethanol concentration at and above which maximum free drug concentration occurred: ≥ 0.6 % v/v
[5]; 0 to 1.4% v/v ethanol
  adsorption of the drug by charcoal: significant increased adsorption of the drug by charcoal
[5]; from 0 to 1.4% v/v ethanol
  change in relative absorbance: 13%

## CC(=O)Oc1ccccc1C(=O)O [acetylsalicylic acid]
[6]
  specificity as liberating agent: specific for bilirubin

## CCO [ethanol]
[7]
  effectiveness as liberating agent: effective

## CCCCCCCCCCCC(=O)O [lauric acid]
[8]
  effectiveness as liberating agent: effective

## CCCCCCCCCCCCS(=O)(=O)[O-].[Na+] [sodium lauryl sulfonate]
[8]
  effectiveness as liberating agent: effective
